These results are taken from article PMC6431521, “Synthesis and Evaluation of ^18F-Labeled Peptide for Gonadotropin-Releasing Hormone Receptor Imaging” (Contrast Media & Molecular Imaging, 2019).

The target of this assay is T1, human GnRH membrane preparations (GnRH receptor) (Homo sapiens, UniProt P30968).
T1 construct: purchased Millipore ChemiScreen HTS027M
T1 sequence (P30968 1-328): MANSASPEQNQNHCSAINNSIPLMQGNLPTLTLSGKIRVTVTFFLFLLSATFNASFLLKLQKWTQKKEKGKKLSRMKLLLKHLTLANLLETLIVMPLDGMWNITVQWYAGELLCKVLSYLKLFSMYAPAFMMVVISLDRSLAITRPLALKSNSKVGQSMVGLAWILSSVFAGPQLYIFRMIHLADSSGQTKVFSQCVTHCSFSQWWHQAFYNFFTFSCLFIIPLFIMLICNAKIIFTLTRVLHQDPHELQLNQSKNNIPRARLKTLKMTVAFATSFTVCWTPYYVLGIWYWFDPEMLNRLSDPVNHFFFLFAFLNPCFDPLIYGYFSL
As to the kind of experiment: In vitro competitive GnRH receptor binding assay. Particulars: for IC50: competitive binding, Millipore ChemiScreen human GnRH membrane preparations, radioligand [131I](His5, D-Tyr6)GnRH, 10^-11 to 10^-5 M peptide, room temperature 1.5 h, pH 7.4, gamma counter, n=3, read-out: GnRH receptor binding affinity IC50. The protocol: GnRH membrane preparations were obtained from Millipore ChemiScreen (HTS027M). The GnRH receptor binding affinities (IC50 values) of FP-D-Lys^6-GnRH, D-Lys^6-GnRH, and NOTA-P-D-Lys^6-GnRH were determined by in vitro competitive binding assay according to the manufacturer's protocol. In brief, 5 μL of Millipore ChemiScreen human GnRH membrane preparations was incubated at room temperature for 1.5 h with approximately 20,000 counts per minute (cpm) of [^131I](His^5, D-Tyr^6)GnRH in the presence of 10^−11 to 10^−5 M of each peptide in 95 μL of binding buffer (50 mM HEPES, 5 mM MgCl2, 1 mM CaCl2, 0.2% BSA, buffer to pH 7.4 using 1 M NaOH). After the incubation, 600 μL of ice-cold washing buffer (50 mM HEPES, 500 mM NaCl, 0.1% BSA, buffer to pH 7.4 using 1 M NaOH) was added to each mixture. Each resulting mixture was filtered through a GF/C filter (Whatman, Clifton, NJ) presoaked in 0.33% polyethylenimine. Each filter was rinsed with 1 mL of ice-cold wash buffer six times. The activities on the filters were measured in a gamma counter (γ-counter).
The GnRH receptor affinities for FP-D-Lys^6-GnRH, D-Lys^6-GnRH, and NOTA-P-D-Lys^6-GnRH were determined using human GnRH membrane preparations and [^131I](His^5, D-Tyr^6)GnRH as the radioligand.

Where [1] appears, read: ratio of IC50 values, GnRH receptor binding.

Consider `CC(C)C[C@H](NC(=O)[C@@H](CCCCN)NC(=O)[C@H](Cc1ccc(O)cc1)NC(=O)[C@H](CO)NC(=O)[C@H](Cc1c[nH]c2ccccc12)NC(=O)[C@H](Cc1cnc[nH]1)NC(=O)[C@@H]1CCC(=O)N1)C(=O)N[C@@H](CCCNC(=N)N)C(=O)N1CCC[C@H]1C(=O)NCC(N)=O` [D-Lys^6-GnRH, reference compound], for which the IC50 is 15.8 nM.
For `CC(C)C[C@H](NC(=O)[C@@H](CCCCNC(=O)C(C)F)NC(=O)[C@H](Cc1ccc(O)cc1)NC(=O)[C@H](CO)NC(=O)[C@H](Cc1c[nH]c2ccccc12)NC(=O)[C@H](Cc1c[nH]cn1)NC(=O)[C@@H]1CCC(=O)N1)C(=O)N[C@@H](CCCNC(=N)N)C(=O)N1CCC[C@H]1C(=O)NCC(N)=O` (stereo partly drawn) [FP-D-Lys^6-GnRH], the IC50 worked out at 2 nM. For the same compound, under setting [1], the “Potency higher than the reference D-Lys6-GnRH” value was “approximately 8 fold”.
For the compound `CC(C)C[C@H](NC(=O)[C@@H](CCCCNC(=O)CCOCCOCCOCCNC(=O)CN1CCN(CC(=O)O)CCN(CC(=O)O)CC1)NC(=O)[C@H](Cc1ccc(O)cc1)NC(=O)[C@H](CO)NC(=O)[C@H](Cc1c[nH]c2ccccc12)NC(=O)[C@H](Cc1c[nH]cn1)NC(=O)[C@@H]1CCC(=O)N1)C(=O)N[C@@H](CCCNC(=N)N)C(=O)N1CCC[C@H]1C(=O)NCC(N)=O` [NOTA-P-D-Lys^6-GnRH], the “Decrease of GnRH receptor binding affinity versus D-Lys6-GnRH” value under setting [1] was “approximately 4 fold”.

What is called IC50 is the concentration that gives 50% inhibition.
